Experimental data reported in patent US6294674A, “Dibenzofuran sulfonamide matrix metalloproteinase inhibitors” (priority 1999, dated 2001).

Columns and labels:
MMP01 = target: T1, MMP01 (Homo sapiens, UniProt P03956); test: Thiopeptolide assay, MMP01; format: biochemical; settings: Tables 2, 3, 5, 7; read-out: IC50 MMP1
T1 construct: purchased Washington University School of Medicine, St. Louis, Mo
T1 sequence (P03956 100-469): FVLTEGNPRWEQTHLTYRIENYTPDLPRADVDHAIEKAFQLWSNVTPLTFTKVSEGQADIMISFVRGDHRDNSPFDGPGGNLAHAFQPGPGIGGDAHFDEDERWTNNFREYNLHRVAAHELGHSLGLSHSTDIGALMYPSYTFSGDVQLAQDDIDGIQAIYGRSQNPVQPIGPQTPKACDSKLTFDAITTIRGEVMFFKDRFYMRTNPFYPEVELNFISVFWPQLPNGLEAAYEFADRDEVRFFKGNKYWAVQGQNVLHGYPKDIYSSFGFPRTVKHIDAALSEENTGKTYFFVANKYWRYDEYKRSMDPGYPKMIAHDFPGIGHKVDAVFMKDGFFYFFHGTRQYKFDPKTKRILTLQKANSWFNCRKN
Procedure: (§1) MMP01, MMP07, MMP09, and MMP13 activity was assayed in a method similar to MMP02 and MMP03 (SCD and GCD). MMP01 and MMP09 can be obtained from Washington University School of Medicine, St. Louis, Mo. MMP07 can be obtained in accordance with the known procedure set forth by Ye QZ, Johnson L. L., and Baragi V., "Gene Syntheses and Expression in E. coli for PUMP, a Human Matrix Metalloproteinase" Biochem. and Biophys. […] MMP 13 can be obtained in accordance with the known procedure set forth by Freije J. M. P., et al., "Molecular Cloning and Expression of Collegenase-3, a Novel Human Matrix Metalloproteinase Produced by Breast Carcinomas" J. Bio.
(§2) Hydrolysis of the thiopeptolide substrate Ac-Pro-Leu-Gly-thioester-Leu-Leu-Gly-OEt (Bachem) is used as the primary screen to determine IC50 values for MMP inhibitors. A 100 μL reaction contains 1 mM 5,5'-dithiobis(2-nitrobenzoic acid) (DTNB), 100 μM substrate, 0.1% Brij, enzyme, and inhibitor in the appropriate reaction buffer. Activated full-length enzymes are assayed at 5 nM, Stromelysin Catalytic Domain (SCD) at 10 nM, and Gelatinase A Catalytic Domain (GaCD) at 1 nM. Inhibitors are screened from 100 μM to 1 nM. Full-length enzymes are assayed in 50 mM HEPES, 10 mM CaCl2, pH 7.0; SCD in 50 mM MES, 10 mM CaCl2, pH 6.0; and GaCD in 50 mM MOPS, 10 mM CaCl2, 10 μM ZnCl2, pH 7.0.

[1] = target: gelatinase A catalytic domain (MMP02); test: Thiopeptolide assay, gelatinase A catalytic domain (GCD, MMP02); format: biochemical; settings: Tables 2, 3, 5, 7; read-out: IC50 MMP-2CD
Procedure: as §2

[2] = target: T2, stromelysin-1 catalytic domain (MMP03) (Homo sapiens, UniProt P08254); test: Thiopeptolide assay, stromelysin-1 catalytic domain (SCD, MMP03); format: biochemical; settings: Tables 2, 3, 5, 7; read-out: IC50 MMP 3CD
T2 construct: SCD (stromelysin-1 catalytic domain); made in house; host or cells: Escherichia coli
T2 sequence (P08254 100-272 limits assumed): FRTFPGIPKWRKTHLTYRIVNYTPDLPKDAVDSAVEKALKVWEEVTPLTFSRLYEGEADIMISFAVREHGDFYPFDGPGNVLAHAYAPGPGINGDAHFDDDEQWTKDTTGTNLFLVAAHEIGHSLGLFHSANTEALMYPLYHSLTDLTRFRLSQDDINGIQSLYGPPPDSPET
Procedure: as §2

MMP07 = target: T3, MMP07 (Homo sapiens, UniProt P09237); test: Thiopeptolide assay, MMP07; format: biochemical; settings: Tables 2, 3, 5, 7; read-out: IC50 MMP-7
T3 construct: made in house; host or cells: Escherichia coli
T3 sequence (P09237 95-267): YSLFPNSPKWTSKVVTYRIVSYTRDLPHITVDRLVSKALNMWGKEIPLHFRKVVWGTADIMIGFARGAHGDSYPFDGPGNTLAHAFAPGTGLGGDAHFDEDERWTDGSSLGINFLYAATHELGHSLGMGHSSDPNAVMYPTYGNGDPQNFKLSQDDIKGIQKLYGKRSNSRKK
Procedure: as §1, §2

MMP-13CD = test: Thiopeptolide assay, MMP-13CD; format: biochemical, human; settings: Tables 2, 3, 5, 7
Procedure: IC50 values were determined using a thiopeptolide substrate, Ac-Pro-Leu-Gly-thioester-Leu-Leu-Gly-OEt (Ye Q.-Z., Johnson L. L., Hupe D. J., and Baragi V., "Purification and Characterization of the Human Stromelysin Catalytic Domain Expressed in Escherichia coli," Biochemistry, 1992;31:11231-11235). MMP01, MMP07, MMP09, and MMP13 activity was assayed in a method similar to MMP02 and MMP03 (SCD and GCD). MMP01 and MMP09 can be obtained from Washington University School of Medicine, St. Louis, Mo. MMP07 can be obtained in accordance with the known procedure set forth by Ye QZ, Johnson L. L., and Baragi V., "Gene Syntheses and Expression in E. coli for PUMP, a Human Matrix Metalloproteinase" Biochem. and Biophys. Res. Comm., 1992; 186:143-149. MMP 13 can be obtained in accordance with the known procedure set forth by Freije J. M. P., et al., "Molecular Cloning and Expression of Collegenase-3, a Novel Human Matrix Metalloproteinase Produced by Breast Carcinomas" J. Bio. Chem., 1994;269:16766-6773.
as §2, with “7.0. The change in absorbance at 405 riM is monitored on a ThermoMax microplate reader at room temperature continuously for 20 minutes.” for “7.0.”

| SMILES | IC50 (MMP01) | IC50 [1] | IC50 [2] | IC50 (MMP07) | IC50 (MMP-13CD) |
| --- | --- | --- | --- | --- | --- |
| O=C(O)C(CCCCNS(=O)(=O)c1ccc(Br)cc1)NS(=O)(=O)c1ccc2oc3ccccc3c2c1 (stereo not shown) [Example D3, 6-(4-Bromo-benzenesulfonylamino)-2-(dibenzofuran-2-sulfonylamino)-hexanoic acid] | > 100 µM | 2.9 µM | 8.6 µM | > 100 µM | 11.8 µM |
| CC(=O)Nc1ccc(S(=O)(=O)NCCCCC(NS(=O)(=O)c2ccc3oc4ccccc4c3c2)C(=O)O)cc1 (stereo not shown) [Example D5, 6-(4-Acetylamino-benzensulfonylamino)-2-(dibenzofuran-2-sulfonylamino)-hexanoic acid] | > 100 µM | 1.2 µM | 8.6 µM | > 100 µM | 7.7 µM |
| O=C(O)C(CCCCNS(=O)(=O)c1ccccc1)NS(=O)(=O)c1ccc2oc3ccccc3c2c1 (stereo not shown) [Example D6, 6-Benzenesulfonylamino-2-(dibenzofuran-2-sulfonylamino)-hexanoic acid] | > 100 µM | 1.4 µM | 2.5 µM | 92.1 µM | 3.3 µM |
| O=C(O)C(CCCCNS(=O)(=O)c1ccc2ccccc2c1)NS(=O)(=O)c1ccc2oc3ccccc3c2c1 (stereo not shown) [Example D8, 2-(Dibenzofuran-2-sulfonylamino)-6-(naphthalene-2-sulfonylamino)-hexanoic acid] | > 100 µM | 7 µM | 19 µM | > 100 µM | 39 µM |
| O=C(O)C(CCCCNS(=O)(=O)c1cccc2ccccc12)NS(=O)(=O)c1ccc2oc3ccccc3c2c1 (stereo not shown) [Example D9, 2-(Dibenzofuran-2-sulfonylamino)-6-(naphthalene-1-sulfonylamino)-hexanoic acid] | > 100 µM | 4.3 µM | 14.2 µM | > 100 µM | 11.7 µM |
| O=C(O)C(CCCCNS(=O)(=O)C=Cc1ccccc1)NS(=O)(=O)c1ccc2oc3ccccc3c2c1 (stereo not shown) [Example D10, 2-(Dibenzofuran-2-sulfonylamino)-6-(2-phenyl-ethenesulfonylamino)-hexanoic acid] | > 100 µM | 2.5 µM | 4.2 µM | > 100 µM | 11.1 µM |

Other lines, results leading:

| IC50 (MMP01) | IC50 [1] | IC50 [2] | IC50 (MMP07) | IC50 (MMP-13CD) | SMILES |
| --- | --- | --- | --- | --- | --- |
| > 100 µM | 1.4 µM | 1.9 µM | 62 µM | 4.1 µM | O=C(CCC(NS(=O)(=O)c1ccc2oc3ccccc3c2c1)C(=O)O)NCCc1ccncc1 (stereo not shown) [Example F1, 2-(Dibenzofuran-2-sulfonylamino)-4-(2-pyridin-4-yl-ethylcarbamoyl)-butyric acid] |
| > 100 µM | 0.9 µM | 1.8 µM | 26.4 µM | 1.2 µM | CCC(C)CNC(=O)CCC(NS(=O)(=O)c1ccc2oc3ccccc3c2c1)C(=O)O (stereo not shown) [Example F2, 2-(Dibenzofuran-2-sulfonylamino)-4-(2-methyl-butylcarbamoyl)-butyric acid] |
| > 100 µM | 3.9 µM | 8.7 µM | > 100 µM | 24.1 µM | CC(O)CNC(=O)CCC(NS(=O)(=O)c1ccc2oc3ccccc3c2c1)C(=O)O (stereo not shown) [Example F3, 2-(Dibenzofuran-2-sulfonylamino)-4-(2-hydroxy-propylcarbamoyl)-butyric acid] |
| 93.7 µM | 0.3 µM | 0.6 µM | 42.7 µM | 2.2 µM | CCCc1ccc(NC(=O)CCC(NS(=O)(=O)c2ccc3oc4ccccc4c3c2)C(=O)O)cc1 (stereo not shown) [Example F4, 2-(Dibenzofuran-2-sulfonylamino)-4-(4-propyl-phenylcarbamoyl)-butyric acid] |
| > 100 µM | 0.7 µM | 1 µM | 40.9 µM | 0.7 µM | O=C(CCC(NS(=O)(=O)c1ccc2oc3ccccc3c2c1)C(=O)O)NCC(c1ccccc1)c1ccccc1 (stereo not shown) [Example F5, 2-(Dibenzofuran-2-sulfonylamino)-4-(2,2-diphenyl-ethylcarbamoyl)-butyric acid] |
| 68.7 µM | 0.2 µM | 0.2 µM | 14.8 µM | 0.3 µM | O=C(CCC(NS(=O)(=O)c1ccc2oc3ccccc3c2c1)C(=O)O)NC1CC1 (stereo not shown) [Example F6, 4-Cyclopropylcarbamoyl-2-(dibenzofuran-2-sulfonylamino)-butyric acid] |
| 40.9 µM | 0.3 µM | 0.4 µM | 12.3 µM | 0.3 µM | O=C(CCC(NS(=O)(=O)c1ccc2oc3ccccc3c2c1)C(=O)O)NCc1cccs1 (stereo not shown) [Example F7, 2-(Dibenzofuran-2-sulfonylamino)-4-[(thiophen-2-ylmethyl)-carbamoyl]-butyric acid] |
| 61.3 µM | 0.1 µM | 0.4 µM | 7 µM | 0.2 µM | CC(C)CC(C)NC(=O)CCC(NS(=O)(=O)c1ccc2oc3ccccc3c2c1)C(=O)O (stereo not shown) [Example F8, 2-(Dibenzofuran-2-sulfonylamino)-4-(1,3-dimethyl-butylcarbamoyl)-butyric acid] |
| > 100 µM | 9.8 µM | 22.6 µM | > 100 µM | 39.3 µM | CN(C)CCNC(=O)CCC(NS(=O)(=O)c1ccc2oc3ccccc3c2c1)C(=O)O (stereo not shown) [Example F9, 2-(Dibenzofuran-2-sulfonylamino)-4-(2-dimethylamino-ethylcarbamoyl)-butyricacid] |
| > 100 µM | 2.1 µM | 2.7 µM | 74.1 µM | 1.9 µM | O=C(CCC(NS(=O)(=O)c1ccc2oc3ccccc3c2c1)C(=O)O)NCc1ccccc1 (stereo not shown) [Example F10, 4-Benzylcarbamoyl-2-(dibenzofuran-2-sulfonylamino)-butyric acid] |
| > 100 µM | 2.1 µM | 2.7 µM | > 100 µM | 3.6 µM | O=C(CCC(NS(=O)(=O)c1ccc2oc3ccccc3c2c1)C(=O)O)NCCc1cccs1 (stereo not shown) [Example F11, 2-(Dibenzofuran-2-sulfonylamino)-4-(2-thiophen-2-yl-ethylcarbamoyl)-butyricacid] |
